Laboratory results published in US20230257373A1, “QUORUM SENSING INHIBITORS AND METHODS OF USE” (priority 2020, published 2023).
Like-named read-outs stand apart in the source and are kept apart here.

Tests used:
[1] = target: SmcR (Vibrio vulnificus, UniProt Q9L8G8); experiment: E. coli bioassay expressing SmcR (IPTG-inducible plasmid); type: cell-based, V. vulnificus
Text: (§1) We hypothesized that there were several possible reasons for the observed difference in PTSP inhibition in the various Vibrio species, including but not limited to: 1) differences in LuxR-inhibitor interaction(s), 2) differences in diffusion of the inhibitor across the membranes, or 3) stability of the inhibitor in the cell and/or cell culture. To examine PTSP activity in a common strain background, we cloned the luxR gene from each Vibrio species into a plasmid under control of an IPTG-inducible promoter and assayed the effect of PTSP against these proteins in the E. coli bioassay. […] We conclude that the differences in PTSP activity in Vibrio species is due to differences in interaction between PTSP and the LuxR-type protein in each Vibrio.
We therefore sought to determine if any of the four residues that differ between HapR and LuxR/SmcR in the putative ligand binding pocket are sufficient to render SmcR insensitive to PTSP. First, we introduced substitutions in SmcR to mimic the amino acid sequence of HapR: F75Y, I96L, […], and C170F. […] Next, we introduced single substitutions in HapR to mimic the amino acid present in SmcR: Y76F, L97I, I141V, and F171C.
(§2) In E. coli assays expressing the five different LuxR-type proteins (luxR, smcR, opaR, vcpR, hapR), slight changes to the protocol were implemented. The luxR genes were cloned under control of the IPTG-inducible Ptac promoter in plasmid pMMB67EH-kanR. […] Strains expressing hapR or smcR required 50 μM IPTG to observe activation of the GFP reporter; IPTG was not added to strains expressing luxR, vcpR, or opaR.

[2] = tested on: PluxC-gfp reporter in V. campbellii; experiment: PluxC-gfp reporter in V. campbellii strains; conditions: Vibrio campbellii
[3] = tested on: V. cholerae; experiment: Quorum sensing reporter in V. cholerae; conditions: even at high concentrations
[4] = target: LuxR (Vibrio harveyi, UniProt P21308); experiment: E. coli bioassay expressing LuxR (IPTG-inducible plasmid); type: cell-based, V. campbellii; design: expressed in transfected cells; host or cells: E. coli DH10B with pMMB67EH-kanR derivative and pJV064; conditions: 25 μM PTSP
Text: as §1, §2

[5] = tested on: Vibrio strains; experiment: luxCDABE reporter across five Vibrio species; conditions: each Vibrio strain except V. cholerae
[6] = tested on: V. vulnificus protease activity; experiment: Protease assay (azocasein) in V. vulnificus; conditions: for IC50: Vibrio vulnificus

## O=S(=O)(c1cccs1)n1ccc(-c2ccccc2)n1 [Compound 10B]
[1]; 25 μM PTSP
  Inhibition of SmcR in E. coli bioassay: inhibited
[1]; SmcR substitution C170F
  Inhibition of SmcR C170F: abolished PTSP inhibition
[1]; SmcR substitution F75Y
  Inhibition of SmcR F75Y: abolished PTSP inhibition
[1]; SmcR substitution I96L
  Inhibition of SmcR I96L: not significantly different from wild-type SmcR
[1]; SmcR substitution V1401
  Inhibition of SmcR V1401: not significantly different from wild-type SmcR
[2]; ATCC25920, read-out: Inhibition (IC50) of the PluxC-gfp reporter, Vcamp ATCC 25920
  IC50: 30 nM
[2]; read-out: IC50, V. campbellii BB120, luxCDABE
  IC50: 140 nM
[2]; read-out: IC50, V. campbellii, b235
  IC50: 350 nM
[2]; read-out: Inhibition (IC50) of the PluxC-gfp reporter, Vcamp HY01
  IC50: 100 nM
[3]
  Inhibition in V. cholerae (in words): not active
[4]
  Inhibition of LuxR in E. coli bioassay: inhibited
[5]
  IC50 values lower than Qstatin: ~10 fold
[6]; 2.5 μM PTSP vs DMSO, V. vulnificus
  Protease activity of wild-type strain: significantly reduced protease activity
[6]; ATCC27562, read-out: IC50 of protease inhibition, V. vulnificus ATCC 27562
  IC50: 6.8 nM
[6]; read-out: IC50 of protease inhibition, V. vulnificus CMPC6
  IC50: 78.1 nM
[6]; read-out: IC50 of protease inhibition, V. vulnificus YJ016
  IC50: 18.3 nM
